The test deals with T1, human mPGES-1 (Homo sapiens, UniProt O14684).
T1 construct: host or cells: microsomes
T1 sequence (O14684 1-152): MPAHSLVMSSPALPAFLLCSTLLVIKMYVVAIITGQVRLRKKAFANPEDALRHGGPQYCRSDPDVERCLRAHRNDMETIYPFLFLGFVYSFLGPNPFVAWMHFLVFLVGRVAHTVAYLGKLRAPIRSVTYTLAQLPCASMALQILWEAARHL
The test is described as follows: Microsomal prostaglandin E synthase biochemical assay. As to conditions: microsome preparation containing human mPGES-1; substrate PGH2 10.8 μM, GSH 2.5 mM, pH 6.8; PGE2 by HTRF; average of at least n=2. The procedure:
Compounds were tested as inhibitors of microsomal prostaglandin E synthase activity in microsomal prostaglandin E synthase assays and whole cell assays. These assays measure prostaglandin E2 (PGE2) synthesis which is taken as a measure of prostaglandin E synthase activity. Microsomal prostaglandin E synthase biochemical assays used microsomal prostaglandin E synthase-1 in microsomal preparations. The source of the microsomes can be for example interleukin-1β-stimulated human A549 cells (which express human mPGES-1) or Sf9 cells transfected with plasmids encoding human mPGES-1 cDNA.
A solution of test compound was added to a diluted microsome preparation containing is human mPGES-1 and pre-incubated for 15 minutes in potassium phosphate buffer pH 6.8 with cofactor glutathione (GSH). Corresponding solutions without test compound were used as positive controls, and corresponding solutions without test compound and without microsomes were used as negative controls. The enzymatic reaction was then started by addition of the substrate PGH2 in an organic solution (dry acetonitrile).
The reaction was stopped after one minute by adding an acidic solution (pH 1.9) of ferric chloride and citrate (final concentrations 7 mM and 47 mM respectively), by which the PGH2 was sequestered (the PGH2 is reduced to mainly 12-hydroxy heptadecatrineoic acid (12-HHT) which is not detected by the subsequent PGE2 detection step). The resulting solution was then pH neutralized by addition of potassium phosphate buffer, prior to diluting an aliquot of the resulting solution in a weak potassium phosphate buffer (50 mM, pH 6.8) containing 0.2% BSA (w/v). […] The PGE2 formed was quantified by use of a commercial HTRF based kit (catalogue #62PG2PEC or #62P2APEC from Cisbio International). 100% activity was defined as the PGE2 production in positive controls subtracted by the PGE2 production in the negative controls. IC50 values were then determined using standard procedures.

Consider `NS(=O)(=O)c1ccccc1S(=O)(=O)NC(=O)c1ccc(C#Cc2ccccc2)c(OCCC(F)(F)F)c1` [Example 65, 4-(Phenylethynyl)-N-(2-sulfamoylphenylsulfonyl)-3-(3,3,3-trifluoropropoxy)benzamide], for which the IC50 was 6.2 nM.
With `NS(=O)(=O)c1ccccc1S(=O)(=O)NC(=O)c1ccc(C#CC2CCCC2)c(OCCC(F)(F)F)c1` [Example 66, 4-(Cyclopentylethynyl)-N-(2-sulfamoylphenylsulfonyl)-3-(3,3,3-trifluoropropoxy)benzamide] the figure was 9.4 nM.
With `NS(=O)(=O)c1ccccc1S(=O)(=O)NC(=O)c1ccc(C#CC2CCCC2)c(OCCOCC(F)(F)F)c1` [Example 67, 4-(Cyclopentylethynyl)-N-(2-sulfamoylphenylsulfonyl)-3-(2-(2,2,2-trifluoroethoxy)ethoxy)benzamide], the IC50 was 9.6 nM.
As for `NS(=O)(=O)c1ccccc1S(=O)(=O)NC(=O)c1ccc(C#CC2CCCC2)c(OCCC(F)F)c1` [Example 68, 4-(Cyclopentylethynyl)-3-(3,3-difluoropropoxy)-N-(2-sulfamoylphenylsulfonyl)benzamide], the figure is 12 nM; as for `NS(=O)(=O)c1ccccc1S(=O)(=O)NC(=O)c1ccc(C#CC2CCCC2)c(OCCCC(F)(F)F)c1` [Example 69, 4-(Cyclopentylethynyl)-N-(2-sulfamoylphenylsulfonyl)-3-(4,4,4-trifluorobutoxy)benzamide], 11 nM; as for `Cc1ccc(C#Cc2ccc(C(=O)NS(=O)(=O)c3ccccc3S(N)(=O)=O)cc2OCCC(F)F)cc1` [Example 70, 3-(3,3-Difluoropropoxy)-N-(2-sulfamoylphenylsulfonyl)-4-(p-tolylethynyl)benzamide], 7.8 nM.
As for `CC(C)C#Cc1ccc(C(=O)NS(=O)(=O)c2ccccc2S(N)(=O)=O)cc1OCCC(F)F` [Example 71, 3-(3,3-Difluoropropoxy)-4-(3-methylbut-1-ynyl)-N-(2-sulfamoylphenylsulfonyl)benzamide], the figure is 31 nM; as for `CC(C)C#Cc1ccc(C(=O)NS(=O)(=O)c2ccccc2S(N)(=O)=O)cc1OCCCF` [Example 72, 3-(3-Fluoropropoxy)-4-(3-methylbut-1-ynyl)-N-(2-sulfamoylphenylsulfonyl)benzamide], 43 nM; as for `COc1cc(C(=O)NS(=O)(=O)c2ccccc2S(N)(=O)=O)ccc1C#Cc1ccccc1` [Example 73, 3-Methoxy-4-(phenylethynyl)-N-(2-sulfamoylphenylsulfonyl)benzamide], 24 nM.
As for `COc1cc(C(=O)NS(=O)(=O)c2ccccc2S(N)(=O)=O)ccc1C#CC(C)C` [Example 74, 3-Methoxy-4-(3-methylbut-1-ynyl)-N-(2-sulfamoylphenylsulfonyl)benzamide], the figure is 190 nM; as for `NS(=O)(=O)c1cc(O)ccc1S(=O)(=O)NC(=O)c1ccc(-c2cc3ccccc3o2)cc1` [Example 75, 4-Hydroxy-benzene-1,2-disulfonic acid 2-amide 1-(4-benzofuran-2-yl-benzoylamide)], 26 nM.
`COc1ccc(S(=O)(=O)NC(=O)c2ccc(-c3cc4ccccc4o3)cc2)c(S(N)(=O)=O)c1` [Example 76, 4-methoxy-benzene-1,2-disulfonic acid 2-amide 1-(4-benzofuran-2-yl-benzoylamide)] displayed an IC50 of 530 nM.
`CC(C)(C)C#Cc1ccc(C(=O)NS(=O)(=O)c2ccc(O)cc2S(N)(=O)=O)cc1` [Example 77, 4-Hydroxy-benzene-1,2-disulfonic acid 2-amide 1-[4-(3,3-dimethyl-but-1-ynyl)-benzoylamide]] came in with an IC50 of 61 nM.
As for `COc1ccc(S(=O)(=O)NC(=O)c2ccc(C#CC(C)(C)C)cc2)c(S(N)(=O)=O)c1` [Example 78, 4-methoxy-benzene-1,2-disulfonic acid 2-amide 1-[4-(3,3-dimethyl-but-1-ynyl)-benzoylamide]], half-maximal inhibition (IC50) was put at 2200 nM.

What is called IC50 is the concentration that inhibits the measured activity by half. Low readings indicate inhibition by little substance, high ones a need for much substance.

Values taken from patent US20100292279A1, “Bis-(Sulfonylamino) Derivatives in Therapy” (ASTRAZENECA AB, priority 2009, published 2010).
